Results taken from patent publication US20220031654A1, “Standardized Bioflavonoid Composition for Regulation of Homeostasis of Host Defense Mechanism” (priority 2020, published 2022).
pIC50: −log10 of the molar value. “And” between values parts separate entries of the source, which are not always exact repeats. Identical values can stand only once.

Key:
Pseudomonas aeruginosa [1] = test: Hyperoxia plus PA infection, bacterial load in the airways; conditions: RES 50 mg/kg, UP446 250 mg/kg; hyperoxia and PA
Description: To investigate the effects of regulating natural host defense homeostasis, mice were treated with the bioflavonoid composition, UP446, at 250 mg/kg orally for seven days prior to being exposed to >90% oxygen for 48 hours (with continued UP446 treatment) before being inoculated with microbial Pseudomonas aeruginosa (PA).

BAL total protein = test: Hyperoxia plus PA infection, total protein in lung lavage fluid; conditions: RES 50 mg/kg, UP446 250 mg/kg; >90% oxygen 48 hours, 24 hours after PA
Description: To investigate the effects of regulating natural host defense homeostasis, mice were treated with the bioflavonoid composition, UP446, at 250 mg/kg orally for seven days prior to being exposed to >90% oxygen for 48 hours (with continued UP446 treatment) before being inoculated with microbial Pseudomonas aeruginosa (PA). Mice were euthanized 24 hours after bacterial inoculation, the lungs were lavaged, and total protein content was determined from the lung lavage fluid.

HMGB1 = test: Hyperoxia plus PA infection, extracellular HMGB1 in lung lavage fluids; assay type: in vivo, mice; conditions: RES 50 mg/kg, UP446 250 mg/kg
Text: Accumulation of extracellular HMGB1 in the airways can compromise innate immunity, leading to an impaired ability to clear invading pathogens and apoptotic neutrophils. This can subsequently cause acute respiratory tract infections, lung injury and even death (Entezari et al., 2012; Patel et al., 2013). To determine whether UP446-attenuated acute lung injury in bacterially infected mice exposed to hyperoxia is due to its impact on the accumulation of extracellular HMGB1 in the airways, the levels of HMGB1 were measured in the lung lavage fluids. As shown previously, prolonged exposure of these mice to hyperoxia followed by microbial infection increased the accumulation of HMGB1 in the airways. […] This elevation can be reduced by pretreatment with either resveratrol (RES) or UP446. […] This correlates with the significant enhanced ability of UP446 to improve host defense mechanisms against microbial infection in the respiratory system.

Pseudomonas aeruginosa [2] = test: Hyperoxia plus PA infection, bacterial load in lung homogenate; assay type: in vivo, mice; conditions: RES 50 mg/kg, UP446 250 mg/kg; hyperoxia and PA
IL-1β = test: LPS-induced acute lung injury, serum IL-1β ELISA; assay type: in vivo, Sprague Dawley rats; conditions: UP446 250 mg/kg; SB 500 mg/kg
Description: The presence of IL-10 in undiluted rat serum was measured using the Rat IL-10 Quantikine ELISA kit from RandD Systems (product #: RLB00) as follows: undiluted serum was added to a microplate coated with IL-1β antibody. […] The washing was repeated, and enzyme substrate was added to the plate.

[3] = tested on: LPS-induced endotoxemia and sepsis; test: LPS-induced sepsis model, survival (UP446 study); assay type: in vivo, CD-1 mice; conditions: UP446 250 mg/kg, Sodium Butyrate 500 mg/kg oral
Description: CD-1 mice and Sprague Dawley rats were purchased from a USDA approved vendor. Eight weeks old male CD-1 mice and SD rats were purchased form Charles River Laboratories, Inc. (Wilmington, Mass.). Animals were acclimated upon arrival and used for the study. They were housed in a temperature-controlled room (71-72° F.) on a 12-hour light-dark cycle and provided with feed and water ad libitum.
This model used survival rate of animals as the end point measurement (Wang et al., 1999). Lipopolysaccharide (LPS) is an integral component of the outer membrane of gram-negative bacteria and a major contributing factor in the initiation of a generalized inflammatory process that may lead to endotoxin shock. It is a state mediated principally by macrophages/monocytes and is attributed to excessive production of several early phase cytokines such as TNF-α, IL-1, IL-6 and gamma interferon (IFN-γ) as well as a late-stage mediator, HMGB1. Following a median lethal dose of LPS (25 mg/kg) administration dissolved in phosphate-buffered saline (PBS; Lifeline, Lot #07641), animals develop endotoxemia and HMGB1 would be detected in the serum at 8 hours and reach to a peak and plateau levels from 16 to 32 hours after LPS. […] In the current study, we monitored the mice for 4 days after LPS injection. […]
The survival rate was calculated as: 100-[(deceased mice/total number of mice)×100]%.

[4] = tested on: LPS-induced acute lung injury; test: LPS-induced acute lung injury, lung histopathology (H&E); assay type: in vivo, Sprague Dawley rats
Description: The severity of lung damage as a result of intratracheal LPS was assessed using HandE-stained lung tissue. The left lobe of the lung was used for the histopathology analysis.

MIP-2/CINC-3 = test: LPS-induced acute lung injury, lung homogenate MIP-2/CINC-3 ELISA; conditions: UP446 250 mg/kg; SB 500 mg/kg
Description: (§1) In this study, we treated Sprague Dawley rats with the test materials orally for 7 days before model induction with LPS. On the 8th day, an hour after oral treatment, LPS was instilled intratracheally (i.t.) at 10 mg/kg dissolved in 0.1 mL/100 g PBS to each rat. The normal control rats received the same volume i.t. of PBS only.
We sacrificed surviving animals 24 hours after intratracheal LPS administration. At necropsy, the bronchoalveolar lavage (BAL) was collected by intratracheal injection of 1.5 mL PBS into the right lobe of the lung, followed by a gentle aspiration at least 3 times. Pooled, recovered fluid was centrifuged at 1,500 rpm for 10 min at 4° C., and was used to measure cytokines (e.g. IL-6) and pulmonary protein levels. This same right lobe was collected for tissue homogenization from each rat for MIP-2/CINC-3 activity analysis.
The plate was subjected to 5 washes before an enzyme-linked polyclonal CINC-3 was added and allowed to bind for 2 hours. The wells were washed another 5 times before a substrate solution was added to the wells and the enzymatic reaction was allowed to commence for 30 minutes at room temperature protected from light. […] The absorbance of each well was read at 450 nm (with a 580 nm correction) and compared to a standard curve of CINC-3 in order to approximate the amount of CINC-3 in each rat lung homogenate sample.

TNF-α = test: LPS-induced acute lung injury, serum TNF-α ELISA; assay type: in vivo, Sprague Dawley rats; conditions: UP446 250 mg/kg; SB 500 mg/kg
Description: The presence of TNF-α in undiluted rat serum was measured using the rat TNF-α Quantikine ELISA kit from RandD Systems (product #: RTA00) as follows: undiluted serum was added to a microplate coated with TNF-α antibody. […] The washing was repeated, and enzyme substrate was added to the plate.

[5] = tested on: LPS-induced endotoxemia and sepsis; test: LPS-induced sepsis model, composition versus its constituents, Colby synergy; assay type: in vivo, CD-1 mice; conditions: for Mortality rate / Survival rate: SB 500, UP894-II 250, RM405 200, RM406 50 mg/kg
Description: On the 8th day, mice were injected intraperitoneally (i.p.) with 25 mg/kg LPS dissolved in PBS at 10 mL/kg. Mice in the UP894-II-treated group received a daily dose of UP894-II at 250 mg/kg. All mice continued to receive the treatment daily for the duration of study, which was completed on the 6th day post LPS injection. Following a median lethal dose of LPS (25 mg/kg) by i.p. administration, animals are expected to develop sepsis within a few hours. If untreated, mice would start to die within 24 hours. Animals were observed hourly. In the current study, we monitored the mice for 6 days after LPS injection.
For the blending of these plant extracts to have unexpected synergy, the observed inhibition needs to be greater than the calculated value.
The survival rate was calculated as: 100-[(deceased mice/total number of mice)×100]%. *p≤0.05

CRP = conditions: UP446 250 mg/kg; SB 500 mg/kg
Description: as §1
We sacrificed surviving animals 24 hours after intratracheal LPS administration. At necropsy, the bronchoalveolar lavage (BAL) was collected by intratracheal injection of 1.5 mL PBS into the right lobe of the lung, followed by a gentle aspiration at least 3 times. Pooled, recovered fluid was centrifuged at 1,500 rpm for 10 min at 4° C., and was used to measure cytokines (e.g. IL-6) and pulmonary protein levels.
The presence of CRP in rat BAL diluted 1:1,000 was measured using the C-Reactive Protein (PTX1) Rat ELISA kit from Abcam (product #: ab108827) as follows: 1:1,000 diluted BAL was added to a microplate coated with CRP antibody. After 2 hours on a plate shaker at room temperature, CRP in BAL was bound to the plate and the plate was thoroughly washed. […] After developing for 10 minutes at room temperature, a stop solution was added, and the absorbance was read at 450 nm. The concentration of CRP was calculated based on the absorbance readings of an CRP standard curve.

COX-2 = conditions: commercially available pure (+)-catechin; Noreen et al. 1998; cited from earlier work
COX-1 = conditions: (+)-catechin isolated from the bark of Ceiba pentandra; Noreen et al. 1998; read-out: IC50, COX-1 inhibition; cited from earlier work
[6] = tested on: prostaglandin endoperoxide synthase; conditions: Kalkbrenner et al. 1992; read-out: IC50, inhibition of prostaglandin endoperoxide synthase; cited from earlier work
[7] = tested on: cox-2 gene transcription in human colon cancer DLD-1 cells; conditions: Mutoh et al. 2000, read-out: IC50, suppression of cox-2 gene transcription; cited from earlier work
[8] = 144 hr post LPS (end of observation)

In the case of Oc1ccc(C=Cc2cc(O)cc(O)c2)cc1 [RES, resveratrol], the “bacterial load in the airways (Mean ± SD)” value (Pseudomonas aeruginosa [1]) was 2.4 ± 0.6 ×10^5 CFU/mL, the “BAL Total protein content (Mean ± SE)” value (BAL total protein) was 526.0 ± 15.5 µg/mL and the “reduction in the level of HMGB1 expression vs vehicle-treated hyperoxia and infection” value (HMGB1) was 74.9%. For the same compound, the “HMGB1 expression in airways (Mean ± SD)” value (HMGB1; densitometry arbitrary unit, hyperoxia and PA) was 29.2 ± 16.5 AU and the “bacterial load in lung homogenate (Mean ± SD)” value (Pseudomonas aeruginosa [2]) was 0.02 ± 0.02 ×10^5 CFU/mL.
For CCCC(=O)[O-].[Na+] [Sodium Butyrate], the “reduction in serum IL-1β level (printed IL-10 for UP446)” value (IL-1β) was 65.3%, the “Survival Rate (%) after 82 hr” value [3] was 50% and the “changes in the histopathology evaluation relative to vehicle” value ([4]; SB 500 mg/kg, UP446 low-dose 125 mg/kg) was “minimal changes”. For the same compound, the “Overall Lung Damage Severity” value ([4]; Score 0-4, UP446 high dose 250 mg/kg, Sodium Butyrate 500 mg/kg) was 3.05 ± 0.42, the “Infiltration of PMN cell” value ([4]; scores 0-4, UP446 high dose 250 mg/kg, Sodium Butyrate 500 mg/kg) was 2.75 ± 0.78 and the “reduction in lung homogenate CINC-3 level vs vehicle” value (MIP-2/CINC-3) was 17.7%. The “reduction in serum TNF-α level against the vehicle control” value (TNF-α) was 67.9%, the Mortality rate ([5]; 24 hr post LPS) was 15.38% and the Survival rate ([5]; 24 hr post LPS) was 84.6%. The Mortality rate ([5]; 36 hr post LPS) was 46.15%, the Survival rate ([5]; 36 hr post LPS, listed as SB) was 53.9% and 53.8% and the Mortality rate ([5]; 48 hr post LPS) was 53.85%. It also gave a Survival rate ([5]; 48 hr post LPS) of 46.2%, a Mortality rate ([5]; 60 hr post LPS) of 61.54% and a Survival rate ([5]; 60 hr post LPS) of 38.5%. For the same compound, the Mortality rate ([5]; 72 hr post LPS) was 61.54%, the Survival rate ([5]; 72 hr post LPS, listed as SB) was 38.5% and the Mortality rate ([5]; 96 hr post LPS) was 69.23%. It also gave a Survival rate ([5]; 96 hr post LPS) of 30.8%, a Mortality rate ([5]; 120 hr post LPS) of 69.23% and a Survival rate ([5]; 120 hr post LPS) of 30.8%. It also gave a Mortality rate [5, 8] of 69.23%, a Survival rate [5, 8] of 30.8% and a Mortality rate [5] of 0.00%. For the same compound, the Survival rate [5] was 100.0%, the “Deceased (total)” value ([5]; up to 144 hours post LPS, N=13) was 9 and the “Survived (total)” value ([5]; up to 144 hours post LPS, N=13) was 4. The “reduction of BAL CRP level relative to vehicle” value (CRP) was “moderate reduction in CRP level without statistical significance”.
For Oc1cc(O)c2c(c1)OC(c1ccc(O)c(O)c1)C(O)C2 (stereo not shown) [Catechin], the “selectivity for COX-2” value (COX-2) is given as “no selectivity for COX-2”, the pIC50 (COX-1) is given as 4.10 and the pIC50 [6] is given as 4.40. For the same compound, the pIC50 [7] was 3.38.
